In patent publication US12329158B2, “Large-scale methods of uniformly coating packaging surfaces with a volatile antimicrobial to preserve food freshness” (AGROFRESH INC., priority 2013, dated 2025):
In brackets after ≈: the same amount, converted by molar mass. Read-outs that look alike come from different tables or passages of the source. Each block holds one compound with its values, some of them ahead of it.

Assays:
Format in all cases: cell-based
Botrytis cinerea [1] = assay: Volatile MIC assay (Example 10); conditions: 72 h, read-out: MIC (mg/L) BOTRCI
Description: (§1) 12-Well (6.5 mL volume per well) microtiter plates are used for the in vitro inhibition assay for volatile antimicrobial compounds. A 3-mL volume of full-strength Potato Dextrose Agar (PDA) is added to each well. After cooling, 1 μL of 1×10^5 per mL Botrytis cinerea and Penicillium expansum spore suspension is spot-pipetted to the center of the agar. Plates are inoculated immediately prior to volatile fungicide treatment. A Whatman #1 filter disk (Cat. No. 1001-0155) is placed, in duplicate, on the underside of a polyethylene PCR plate sealing film. […] The headspace around the inoculum is then sealed inside the well by the film with the adhering disk containing the fungicide by inverting the plates over the treated disks and sealing to prevent any of the chemical from flaking from the disk and falling onto the inoculated agar. After 3 days of storage at 23° C., the cultures are evaluated for percent growth relative to control based on measurement of fungal colony diameter.

Penicillium expansum [2] = assay: Volatile MIC assay (Example 10); conditions: 72 h, read-out: MIC (mg/L) PENIEX
Description: as §1

B. cinerea = assay: In vitro contact assay, amended agar (Example 24); conditions: Botrytis cinerea, 72 h, read-out: Contact MIC (mg/L) B. cinerea
Description: (§2) Contact assay: 6-well (16.5 mL volume per well) microtiter plates are used for an in vitro inhibition assay. […] A 7.5-mL volume of the amended media is added to each well of the microtiter plate. […] The plates are sealed with a clear film and incubated for 3 days at 23° C. After incubation, plates are evaluate for percent growth relative to acetone only control.

P. expansum = assay: In vitro contact assay, amended agar (Example 24); conditions: Penicillium expansum, 72 h, read-out: Contact MIC (mg/L) P. expansum
Description: as §2

Botrytis cinerea [3] = assay: In vitro volatile assay (Example 24); conditions: 72 h, headspace, 100% control, 3 days at 23 C, read-out: Volatile MIC (mg/L) B. cinerea
Description: (§3) Volatile assay: 12-well (6.5 mL volume per well) microtiter plates are used. A 3-mL volume of half strength PDA is added to each well. […] A Whatman #1 filter disk (Cat. No. 1001-0155) is placed, in duplicate, on the underside of a polyethylene PCR plate sealing film. […] The acetone is permitted to evaporate for 5 minutes. The headspace around the inoculum is then sealed inside the well by the film with the adhering disk containing the fungicide. Plates are inverted, placed over the treated disks, and sealed to prevent any of the chemical from flaking from the disk and falling onto the inoculated agar. […] Contact assay: 6-well (16.5 mL volume per well) microtiter plates are used for an in vitro inhibition assay. […] A 7.5-mL volume of the amended media is added to each well of the microtiter plate. […] The plates are sealed with a clear film and incubated for 3 days at 23° C. After incubation, plates are evaluate for percent growth relative to acetone only control.

Penicillium expansum [4] = assay: In vitro volatile assay (Example 24); conditions: 72 h, headspace, 100% control, 3 days at 23 C, read-out: Volatile MIC (mg/L) P. expansum
Description: as §3

Alternaria alternata = assay: Volatile MIC assay (Example 9); conditions: 72 h, headspace concentration, 3 days at 23 C, read-out: MIC (mg/L) ALTEAL
Description: (§4) A 3-mL volume of full-strength Potato Dextrose Agar (PDA) is added to each well. […] Plates are inoculated immediately prior to volatile fungicide treatment. A Whatman #1 filter disk (Cat. No. 1001-0155) is placed, in duplicate, on the underside of a polyethylene PCR plate sealing film. […] The acetone is permitted to evaporate for 5 minutes. The headspace around the inoculum is then sealed inside the well by the film with the adhering disk containing the fungicide by inverting the plates over the treated disks and sealing to prevent any of the chemical from flaking from the disk and falling onto the inoculated agar.

Botrytis cinerea [5] = assay: Volatile MIC assay (Example 9); conditions: 72 h, headspace concentration, 3 days at 23 C, read-out: MIC (mg/L) BOTRCI
Description: as §4

Monilinia fructicola = assay: Volatile MIC assay (Example 9); conditions: 72 h, headspace concentration, 3 days at 23 C, read-out: MIC (mg/L) MONIFC
Description: as §4

Penicillium expansum [6] = assay: Volatile MIC assay (Example 9); conditions: 72 h, headspace concentration, 3 days at 23 C, read-out: MIC (mg/L) PENIEX
Description: as §4

Botrytis cinerea [7] = assay: In vitro inhibition assay for volatile fungicide, 12-well plates (Example 7); conditions: volatile; 14 days at 4 C
Description: For testing activity against fungi pathogens, an in vitro inhibition assay for volatile antimicrobial compounds is developed using 12-Well (7 milliliter (mL) volume per well) microtiter plates. A 3-mL volume of full-strength Potato Dextrose Agar (PDA) is added to each well. After cooling, 1 microliter (μL) of 1×10^6 per mL Botrytis cinerea spore suspension is spot pipetted to the center of the agar. For the first experiment, inoculated plates are allowed to germinate for 5 days at 4° C. For the second experiment, plates are inoculated immediately prior to volatile fungicide treatment. Small Whatman #1 filter disks (Cat. No. 1001-0155) are placed, in duplicate, on the underside of a polyethylene PCR plate sealing film.
The acetone is permitted to evaporate for 5 minutes. The headspace around the Botrytis cinerea inoculum is then sealed inside the well by the film with the adhering disk containing the fungicide. Plates are inverted, placed over the treated disks and sealed to prevent any of the chemical from flaking from the disk and falling onto the inoculated agar. After 14 days of storage at 4° C., cultures are evaluated for percent growth relative to control. […]

[8] = volatile treatment, 3 days at 23 C
[9] = amended agar, 100% control, 3 days at 23 C

SMILES: Nc1ccccc1OB1OCc2cc(F)ccc21 [Compound 116]
- MIC (Botrytis cinerea [1]; [8]): 1.1 mg/L (≈ 4.53 µM)
- MIC (Penicillium expansum [2]; [8]): 8.9 mg/L (≈ 36.6 µM)

SMILES: O[B@@-]1([NH2+]Cc2ccccc2)OCc2ccccc21 [Compound 121]
- MIC (Botrytis cinerea [1]; [8]): 4.5 mg/L (≈ 18.7 µM)
- MIC (Penicillium expansum [2]; [8]): 17.9 mg/L (≈ 74.2 µM)
- MIC (B. cinerea; [9]): 10 mg/L (≈ 41.5 µM)
- MIC (P. expansum; [9]): 10 mg/L (≈ 41.5 µM)
- MIC (Botrytis cinerea [3]): 4.5 mg/L (≈ 18.7 µM)
- MIC (Penicillium expansum [4]): 17.9 mg/L (≈ 74.2 µM)

SMILES: C[Si](C)(C)OB1OCc2ccccc21 [Compound 122]
- MIC (Botrytis cinerea [1]): 2.2 mg/L (≈ 10.7 µM)

SMILES: OB1OCc2cc(Cl)ccc21 [Compound 124]
- MIC (Botrytis cinerea [1]; [8]): 4.5 mg/L (≈ 26.7 µM)
- MIC (Penicillium expansum [2]; [8]): 8.9 mg/L (≈ 52.9 µM)
- MIC (B. cinerea; [9]): 2 mg/L (≈ 11.9 µM)
- MIC (P. expansum; [9]): 2 mg/L (≈ 11.9 µM)
- MIC (Botrytis cinerea [3]): 4.5 mg/L (≈ 26.7 µM)
- MIC (Penicillium expansum [4]): 8.9 mg/L (≈ 52.9 µM)

SMILES: Fc1ccc2c(c1)COB2c1ccccc1 [Compound 127]
- MIC (Botrytis cinerea [1]; [8]): 2.2 mg/L (≈ 10.4 µM)
- MIC (Penicillium expansum [2]; [8]): 4.5 mg/L (≈ 21.2 µM)

SMILES: C=CB1OCc2cc(F)ccc21 [Compound 129]
- MIC (Botrytis cinerea [1]; [8]): 4.5 mg/L (≈ 27.8 µM)
- MIC (Penicillium expansum [2]; [8]): 8.9 mg/L (≈ 54.9 µM)

SMILES: N#C[B-]1(O)OCc2cc(F)ccc21.[K+] (centres unmarked) [Compound 130]
- MIC (Botrytis cinerea [1]): 1.1 mg/L
- MIC (Penicillium expansum [2]): 4.5 mg/L
- MIC (B. cinerea): 2 mg/L
- MIC (P. expansum): 0.4 mg/L

SMILES: N#C[B-]1(O)OCc2cc(F)ccc21.[Na+] (centres unmarked) [Compound 132]
- MIC (B. cinerea; [9]): 2 mg/L
- MIC (P. expansum; [9]): 2 mg/L
- MIC (Botrytis cinerea [3]): 1.1 mg/L
- MIC (Penicillium expansum [4]): 4.5 mg/L

SMILES: Fc1ccc(B2OCc3cc(F)ccc32)cc1 [Compound 133]
- MIC (Botrytis cinerea [1]; [8]): 8.9 mg/L (≈ 38.7 µM)
- MIC (Penicillium expansum [2]; [8]): 35.7 mg/L (≈ 155 µM)

SMILES: Fc1cccc(B2OCc3cc(F)ccc32)c1 [Compound 134]
- MIC (Botrytis cinerea [1]; [8]): 17.9 mg/L (≈ 77.8 µM)
- MIC (Penicillium expansum [2]; [8]): > 35.7 mg/L

SMILES: COc1ccc(B2OCc3cc(F)ccc32)cc1 [Compound 135]
- MIC (Botrytis cinerea [1]; [8]): 17.9 mg/L (≈ 73.9 µM)
- MIC (Penicillium expansum [2]; [8]): > 35.7 mg/L
- MIC (B. cinerea; [9]): 2 mg/L (≈ 8.26 µM)
- MIC (P. expansum; [9]): 2 mg/L (≈ 8.26 µM)
- MIC (Botrytis cinerea [3]): 17.9 mg/L (≈ 73.9 µM)
- MIC (Penicillium expansum [4]): > 35.7 mg/L

SMILES: OB1OCc2ccccc21 [Compound B2, 2-(hydroxymethyl)phenylboronic acid cyclic monoester]
- Rate giving 100% in vitro inhibition of Botrytis cinerea (Botrytis cinerea [7]): 0.0078 mg/disk

More lines, now with the values ahead:

- MIC (Botrytis cinerea [1]; [8]): 8.9 mg/L (≈ 36.8 µM)
- MIC (Penicillium expansum [2]; [8]): > 35.7 mg/L
SMILES: COc1cccc(B2OCc3cc(F)ccc32)c1 [Compound 136]

- MIC (Botrytis cinerea [1]; [8]): 0.3 mg/L (≈ 1.7 µM)
- MIC (Penicillium expansum [2]; [8]): 1.1 mg/L (≈ 6.25 µM)
SMILES: C=C(C)B1OCc2cc(F)ccc21 [Compound 137]

- MIC (Alternaria alternata): 7.3 mg/L (≈ 48 µM)
- MIC (Botrytis cinerea [5]): 10.6 mg/L (≈ 69.8 µM)
- MIC (Monilinia fructicola): 6.3 mg/L (≈ 41.5 µM)
- MIC (Penicillium expansum [6]): 68.3 mg/L (≈ 450 µM)
SMILES: OB1OCc2ccc(F)cc21 [Compound 200]

- MIC (Botrytis cinerea [1]; [8]): 35.7 mg/L (≈ 235 µM)
- MIC (Penicillium expansum [2]; [8]): 143 mg/L (≈ 941 µM)
SMILES: OB1OCc2c(F)cccc21 [Compound 202]

- MIC (Botrytis cinerea [1]; [8]): 8.9 mg/L (≈ 58.6 µM)
- MIC (Penicillium expansum [2]; [8]): 143 mg/L (≈ 941 µM)
SMILES: OB1OCc2cccc(F)c21 [Compound 203]

- MIC (Botrytis cinerea [1]; [8]): 8.9 mg/L (≈ 52.4 µM)
- MIC (Penicillium expansum [2]; [8]): > 35.7 mg/L
SMILES: OB1OCc2cc(F)c(F)cc21 [Compound 204]

- MIC (B. cinerea; [9]): 0.4 mg/L (≈ 1.21 µM)
- MIC (P. expansum; [9]): 2 mg/L (≈ 6.06 µM)
- MIC (Botrytis cinerea [3]): 0.6 mg/L (≈ 1.82 µM)
- MIC (Penicillium expansum [4]): 8.9 mg/L (≈ 27 µM)
SMILES: Fc1ccc2c(c1)COB2OCCOB1OCc2cc(F)ccc21 [Compound B]
